Source: paper PMC8343220, “The selectivity of α‐adrenoceptor agonists for the human α1A, α1B, and α1D‐adrenoceptors” (Pharmacology Research & Perspectives, 2021)
Values joined by “and” are separate entries in the source; they are usually repeats but may differ in a detail not shown here. Identical values can stand only once. Like-named read-outs stand apart in the source and are kept apart here. Marks after values point to notes of the source that are not given here.

What was measured:
[1] = target: T1, human α1D‐adrenoceptor (full length) (Homo sapiens, UniProt P25100); experiment: Intracellular free calcium mobilization, CHO‐α1D cells; type: cell-based
T1 construct: human α1D‐adrenoceptor (full length) were used; expressed in transfected cells; host or cells: CHO-K1
T1 sequence (P25100 1-572): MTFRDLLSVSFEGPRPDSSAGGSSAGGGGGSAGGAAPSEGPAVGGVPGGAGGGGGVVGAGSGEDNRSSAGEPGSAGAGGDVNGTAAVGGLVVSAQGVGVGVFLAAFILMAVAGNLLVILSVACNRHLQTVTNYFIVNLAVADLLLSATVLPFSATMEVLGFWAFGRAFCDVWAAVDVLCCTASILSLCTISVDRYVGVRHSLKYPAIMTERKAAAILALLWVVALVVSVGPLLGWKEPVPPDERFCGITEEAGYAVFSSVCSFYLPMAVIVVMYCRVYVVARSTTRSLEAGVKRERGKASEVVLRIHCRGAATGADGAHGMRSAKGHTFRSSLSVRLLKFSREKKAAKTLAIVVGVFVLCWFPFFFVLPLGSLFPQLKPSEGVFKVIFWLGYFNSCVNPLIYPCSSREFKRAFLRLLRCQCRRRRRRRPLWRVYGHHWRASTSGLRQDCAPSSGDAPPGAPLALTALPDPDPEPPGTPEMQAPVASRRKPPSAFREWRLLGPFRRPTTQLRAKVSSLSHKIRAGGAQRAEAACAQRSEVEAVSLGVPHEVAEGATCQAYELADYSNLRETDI

[2] = target: T2, human α1A‐adrenoceptor (Homo sapiens, UniProt P35348); experiment: ^3H‐cAMP accumulation in the presence of 10 μM forskolin, CHO‐α1A cells; type: cell-based
T2 construct: expressed in transfected cells; host or cells: CHO-K1
T2 sequence (P35348 1-466): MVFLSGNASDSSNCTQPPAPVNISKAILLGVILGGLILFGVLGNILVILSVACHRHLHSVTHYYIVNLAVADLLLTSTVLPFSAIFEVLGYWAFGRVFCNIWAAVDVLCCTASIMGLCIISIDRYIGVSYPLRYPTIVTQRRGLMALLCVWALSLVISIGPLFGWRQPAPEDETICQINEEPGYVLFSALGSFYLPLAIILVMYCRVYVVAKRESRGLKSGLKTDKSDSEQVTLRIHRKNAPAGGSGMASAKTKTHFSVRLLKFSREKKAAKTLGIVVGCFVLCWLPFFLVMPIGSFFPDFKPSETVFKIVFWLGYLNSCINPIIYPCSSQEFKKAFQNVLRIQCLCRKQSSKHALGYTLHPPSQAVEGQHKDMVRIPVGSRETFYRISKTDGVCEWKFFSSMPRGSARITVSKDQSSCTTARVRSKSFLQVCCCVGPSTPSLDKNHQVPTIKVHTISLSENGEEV

[3] = target: T2, human α1A‐adrenoceptor; experiment: ERK1/2‐phosphorylation (Surefire Alphascreen), CHO‐α1A cells; type: cell-based
[4] = target: T2, human α1A‐adrenoceptor; experiment: Intracellular free calcium mobilization, CHO‐α1A cells; type: cell-based
[5] = target: T2, human α1A‐adrenoceptor; experiment: ^3H‐cAMP accumulation, CHO‐α1A cells; type: cell-based; settings: CHO‐α1A cells; for cAMP accumulation % forskolin: % of 10 µM forskolin response
[6] = target: T1, human α1D‐adrenoceptor (full length); experiment: ^3H‐cAMP accumulation, CHO‐α1D cells; type: cell-based; settings: cAMP accumulation without forskolin
[7] = target: T1, human α1D‐adrenoceptor (full length); experiment: ^3H‐cAMP accumulation in the presence of 10 μM forskolin, CHO‐α1D cells; type: cell-based; settings: CHO‐α1D cells
[8] = system: parental CHO cell line without any transfected receptors; experiment: Forskolin‐stimulated cAMP accumulation, parent CHO cells without transfected receptors; type: cell-based, Chinese hamster; settings: CHO cells without transfected receptors; in presence of forskolin
[9] = target: T3, human α1B‐adrenoceptor (Homo sapiens, UniProt P35368); experiment: ERK1/2‐phosphorylation (Surefire Alphascreen), CHO‐α1B cells; type: cell-based
T3 construct: expressed in transfected cells; host or cells: CHO-K1
T3 sequence (P35368 1-520): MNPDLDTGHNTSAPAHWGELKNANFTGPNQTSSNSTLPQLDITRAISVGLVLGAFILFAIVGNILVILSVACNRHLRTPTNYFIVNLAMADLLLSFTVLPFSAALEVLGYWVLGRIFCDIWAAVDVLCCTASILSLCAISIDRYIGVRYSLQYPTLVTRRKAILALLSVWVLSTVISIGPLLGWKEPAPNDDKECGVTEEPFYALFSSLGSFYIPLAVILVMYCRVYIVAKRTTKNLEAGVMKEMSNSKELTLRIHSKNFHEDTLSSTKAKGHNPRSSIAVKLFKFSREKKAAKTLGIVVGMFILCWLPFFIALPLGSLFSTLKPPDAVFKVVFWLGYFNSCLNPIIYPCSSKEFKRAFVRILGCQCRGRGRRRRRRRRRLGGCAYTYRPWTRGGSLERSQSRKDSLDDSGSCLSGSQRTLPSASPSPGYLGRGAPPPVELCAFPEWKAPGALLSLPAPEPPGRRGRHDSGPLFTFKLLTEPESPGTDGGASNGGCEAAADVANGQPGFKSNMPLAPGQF

[10] = system: parental CHO cell line without any transfected receptors; experiment: ERK1/2‐phosphorylation, parent CHO cells without transfected receptors; type: cell-based, Chinese hamster; settings: CHO cells without transfected receptors; maximal response as % of PDBu (10μM) response; mean ± s.e.m.
[11] = target: T1, human α1D‐adrenoceptor (full length); experiment: ^3H‐prazosin whole‐cell radioligand binding, CHO‐α1D cells
[12] = target: T1, human α1D‐adrenoceptor (full length); experiment: ERK1/2‐phosphorylation (Surefire Alphascreen), CHO‐α1D cells; type: cell-based
[13] = target: T3, human α1B‐adrenoceptor; experiment: ^3H‐cAMP accumulation, CHO‐α1B cells; type: cell-based; settings: CHO‐α1B cells; for cAMP accumulation % forskolin: % forskolin maximum response
[14] = target: T3, human α1B‐adrenoceptor; experiment: ^3H‐prazosin whole‐cell radioligand binding, CHO‐α1B cells
[15] = target: T3, human α1B‐adrenoceptor; experiment: Intracellular free calcium mobilization, CHO‐α1B cells; type: cell-based
[16] = target: T3, human α1B‐adrenoceptor; experiment: ^3H‐cAMP accumulation in the presence of 10 μM forskolin, CHO‐α1B cells; type: cell-based; settings: CHO‐α1B cells
[17] = target: T2, human α1A‐adrenoceptor; experiment: ^3H‐prazosin whole‐cell radioligand binding, CHO‐α1A cells
[18] = CHO‐α1D cells, maximal response as % of 10 µM ionomycin
[19] = CHO‐α1A cells, % of 10 µM PDBu, ^a bi‐phasic: initial stimulatory part
[20] = CHO‐α1A cells, maximal response as % of 10 µM ionomycin
[21] = in presence of forskolin, log values given negative
[22] = fold increase of the forskolin response

SMILES: CNC[C@H](O)c1ccc(O)c(O)c1 [Adrenaline]
- EC50 ([1]; CHO‐α1D cells, log values given negative, read-out: Intracellular calcium release Log EC50 (converted)): 18.2 nM
- Intracellular calcium release % ionomycin [1, 18]: 30.3 ± 2.3%
- Gi‐mediated inhibition of forskolin‐stimulated cAMP, CHO‐α1A cells [2]: did not inhibit cAMP accumulation
- ERK1/2‐phosphorylation % PDBu [3, 19]: 71.3% and 71.3 ± 7.7%
- Intracellular calcium release % ionomycin [4, 20]: 58.9 ± 3.7%
- Intracellular calcium release % ionomycin ([4]; CHO‐α1A cells, maximal response as % of 10 µM ionomycin, listed as adrenaline): 58.9%
- cAMP accumulation % forskolin [5]: 164% and 164.0 ± 7.3%
- cAMP Log EC50 [6]: No response
- EC50 [7, 21]: 871 nM
- cAMP accumulation (in presence of forskolin) Log EC50 [8]: No response
- ERK1/2‐phosphorylation % PDBu [9]: 76.6 ± 9.0%
- ERK1/2-phosphorylation % PDBu [10]: No response
- Kd ([11]; Log KD α1D, ^3H‐prazosin whole cell binding, CHO‐α1D cells, given as log KD (negative), mean ± SEM, 'early plateau' = specific binding not fully inhibited): 6460 nM
- EC50 ([12]; CHO‐α1D cells, log values given negative, read-out: ERK1/2‐phosphorylation Log EC50 (converted)): 182 nM
- ERK1/2‐phosphorylation % PDBu ([12]; CHO‐α1D cells, maximal response as % of PDBu): 32.2 ± 4.0%
- cAMP accumulation % forskolin [13]: 172.1 ± 11.3%

SMILES: CS(=O)(=O)Nc1c(O)ccc2c1CCCC2C1=NCCN1 (centres unmarked) [A61603]
- IC50 (log), ^3H‐prazosin binding ([14]; CHO‐α1B cells, log IC50 bound given where no KD could be determined): IC50 > −4
- Log IC50 α1B, ^3H‐prazosin whole cell binding ([14]; CHO‐α1B cells, printed as IC50> log value): IC50 >−4
- Intracellular calcium release Log EC50 ([1]; CHO‐α1D cells, log values given negative): −5.29 ± 0.12
- Intracellular calcium release % ionomycin [1, 18]: 12.0 ± 3.6%
- ERK1/2‐phosphorylation % PDBu [3, 19]: 74.8 ± 4.5%
- Intracellular calcium release % ionomycin [4, 20]: 61.0 ± 3.8%
- cAMP accumulation % forskolin [5]: 142.7 ± 8.7%
- cAMP Log EC50 [6]: No response
- cAMP (in presence of forskolin) Log EC50 [7, 21]: No response
- cAMP accumulation (in presence of forskolin) Log EC50 [8]: No response
- Intracellular calcium release Log EC50 ([15]; CHO‐α1B cells, given as log EC50 (negative numbers)): −6.52 ± 0.08
- Intracellular calcium release % ionomycin ([15]; CHO‐α1B cells, maximal response as % of 10 µM ionomycin response): 35.7 ± 3.7%
- ERK1/2‐phosphorylation % PDBu ([9]; CHO‐α1B cells, maximal response as % PDBu response, for bi‐phasic responses the initial stimulatory part): 54.5 ± 7.9%
- ERK1/2-phosphorylation % PDBu [10]: No response
- 3H‐prazosin binding Log KD ([11]; CHO‐α1D cells, whole‐cell binding (from Table 1), log values given negative): −3.92
- Log KD α1D, ^3H‐prazosin whole cell binding ([11]; CHO‐α1D cells, given as log KD (negative), mean ± SEM, 'early plateau' = specific binding not fully inhibited): −3.92 ± 0.11
- cAMP accumulation (in presence of forskolin) Log EC50 [16]: −6.16 ± 0.09
- ERK1/2‐phosphorylation % PDBu at 100 µM ([12]; CHO‐α1D cells, response at 100 µM ligand (no EC50 given)): 11.7 ± 2.9%
- cAMP accumulation Log EC50 [13]: −5.63 ± 0.18
- cAMP accumulation % forskolin [13]: 5.3 ± 0.5%

SMILES: CC(N)C(O)c1ccc(O)c(O)c1 (stereo not drawn) [α‐Methylnorepinephrine]
- Log IC50 α1B, ^3H‐prazosin whole cell binding [14]: IC50>−3
- Intracellular calcium release % ionomycin [1]: 29.9 ± 3.6%
- Intracellular calcium release Log EC50 [1]: −7.02 ± 0.10
- Log efficacy ratio KD /EC50 [1]: 2.18
- cAMP accumulation (in presence of forskolin) Log EC50 ([2]; CHO‐α1A cells, 10 μM forskolin): −5.74 ± 0.10
- cAMP accumulation (in presence of forskolin) Fold increase ([2]; CHO‐α1A cells, fold increase of the forskolin response): 2.49 ± 0.05 fold
- ERK1/2‐phosphorylation % PDBu [3]: 87.5 ± 6.3%
- ERK1/2‐phosphorylation Log EC50 [3]: −6.86 ± 0.12 ^a
- Intracellular calcium release % ionomycin [4]: 65.2 ± 2.6%
- Intracellular calcium release Log EC50 [4]: −7.69 ± 0.07
- Log efficacy ratio KD /EC50 [4]: 3.37
- Affinity selectivity ratio α1A vs α1B [17]: >20.9 fold
- Log KD α1A, ^3H‐prazosin whole cell binding [17]: −4.32 ± 0.04
- cAMP accumulation Log EC50 ([5]; 5 h): −5.09 ± 0.06
- cAMP accumulation % forskolin [5]: 166.8 ± 7.4%
- cAMP Log EC50 [6]: No response
- cAMP (in presence of forskolin) Fold increase [7, 22]: 1.23 ± 0.06
- cAMP (in presence of forskolin) Log EC50 [7, 21]: −6.05 ± 0.12
- Intracellular calcium release % ionomycin [15]: 69.1 ± 2.6%
- Intracellular calcium release Log EC50 [15]: −8.10 ± 0.11
- Log efficacy ratio KD /EC50 [15]: >5.10
- ERK1/2‐phosphorylation % PDBu [9]: 90.6 ± 4.4%
- ERK1/2‐phosphorylation Log EC50 [9]: −6.75 ± 0.13
- 3H‐prazosin binding Log KD [11]: −4.84
- Affinity selectivity ratio α1A vs α1D [11]: 3.3 fold
- Affinity selectivity ratio α1B vs α1D [11]: >69.2 fold
- Log KD α1D, ^3H‐prazosin whole cell binding [11]: −4.84 ± 0.14^early plateau
- cAMP accumulation (in presence of forskolin) Fold increase [16, 22]: 3.09 ± 0.21 fold
- cAMP accumulation (in presence of forskolin) Log EC50 [16]: −5.56 ± 0.05
- ERK1/2‐phosphorylation % PDBu [12]: 27.7 ± 4.9%
- ERK1/2‐phosphorylation Log EC50 [12]: −5.74 ± 0.11
- cAMP accumulation % forskolin at 100 µM ([13]; response at 100 µM ligand (no EC50 given)): 129.7 ± 20.5%
